Measured values taken from patent US20120172450A1, “USE OF JASMONATE FOR IMPROVING SKELETAL MUSCLE FUNCTION” (BROADY HEALTH SCIENCES, LLC, priority 2010, published 2012).

Tested on: skeletal muscle fatigue and performance
Assay: Effect of Jasmone on Muscle Fatigue and Performance in exercising subjects
Type: in vivo, human
Description: Subjects ranged from 43 to 72 years old. Subjects took 50-100 micrograms of jasmone once a day. All subjects were currently performing various exercise programs. Individual data was collected as to the changes that were noted upon jasmone supplementation.
Subject one, was a person who ran and trained with weights on a regular basis. They took a simplified stress test measuring time to maximum heart rate on treadmill exertion. Pre-Jasmone time on treadmill to target heart rate was 9 minutes. Two weeks after taking Jasmone, stress test results improved to 11 minutes. After 4 weeks of jasmone protocol stress test time increased to 15 min. In addition, after 3 weeks they reported increased weight repetitions by 15 percent and within four weeks increased push ups by 20 percent with same level of exertion as before.
Subject two, was a person who ran on a regular basis. Prior to Jasmone, full exertion exercise routine consisted of approximately 2 miles at 4.5 miles per hour. After two weeks of Jasmone was able to increase routine to running time to 2.5 miles without difficulty.
Subject three (person one), was a person who biked on a regular basis. After 4 weeks of taking Jasmone they increased cycling distance by 50 percent and speed by 10 percent.
Subject four, a person reported who trained with weights on a regular basis, increased weight repetitions of 25% after 4 weeks of taking Jasmone. Subject four, a person regularly performed an exercise routine including weight machines. Prior to taking Jasmone, on a particular machine, they were able to perform 12 repetitions at 60 pds of weight. Two weeks after taking Jasmone was able to increase weight to 80 and repetitions increased to 14.
Subject five, was a person, who regularly exercised but due to travel was unable to maintain normal exercise routine during trial. […] Two examples of this include running through an airport carrying luggage and another running in extreme heat.

CC/C=C\CC1=C(C)CCC1=O [Jasmone, jasmone]
self-reported running ability (Subject five, normal exercise routine not maintained during trial): increased ability to run far and fast without getting winded | increase in weight repetitions (Subject four, after 4 weeks of taking Jasmone): 25% | self-reported strength and endurance (Subject four, after four weeks of Jasmone): felt increased strength and endurance | repetitions on weight machine (Subject four, two weeks after taking Jasmone, prior 12 repetitions): 14 | weight on weight machine (Subject four, two weeks after taking Jasmone, prior 60 pds): 80 pds | increase in weight repetitions (Subject one, after 3 weeks, same level of exertion as before): 15% | stress test time (time on treadmill to target heart rate) (Subject one, after 4 weeks of jasmone, pre-Jasmone 9 minutes): 15 min | time on treadmill to target heart rate (simplified stress test) (Subject one, two weeks after taking Jasmone, 50-100 micrograms once a day, pre-Jasmone 9 minutes): 11 min | increase in push ups (Subject one, within four weeks, same level of exertion as before): 20% | increase in cycling distance (Subject three (person one), after 4 weeks of taking Jasmone): 50% | increase in cycling speed (Subject three, after 4 weeks of taking Jasmone): 10% | workout fatigue (Subject two, after additional two weeks): workout fatigue continued to improve | running routine distance (Subject two, after two weeks of Jasmone, prior approximately 2 miles at 4.5 miles per hour): 2.5 miles
